# Reference: patent US20220026427A1, “CELL BASED ASSAYS AND KITS FOR ASSESSING SERUM CHOLINERGIC RECEPTOR ACTIVITY” (Centre for Addiction and Mental Health, priority 2017, published 2022)
# Where a name gives a salt, the structure may show the parent alone.
# Legend:
# [1] = biological target: T1, human or rat M1 muscarinic receptors (Rattus norvegicus, UniProt P08482); assay: Ca2+ mobilization (FluoForte) protocol in CHO cells expressing M1 receptors, pre- and post-carbachol phases; type: cell-based
# T1 construct: host or cells: CHO cells (M1WT3), whole cells
# T1 sequence (P08482 1-460): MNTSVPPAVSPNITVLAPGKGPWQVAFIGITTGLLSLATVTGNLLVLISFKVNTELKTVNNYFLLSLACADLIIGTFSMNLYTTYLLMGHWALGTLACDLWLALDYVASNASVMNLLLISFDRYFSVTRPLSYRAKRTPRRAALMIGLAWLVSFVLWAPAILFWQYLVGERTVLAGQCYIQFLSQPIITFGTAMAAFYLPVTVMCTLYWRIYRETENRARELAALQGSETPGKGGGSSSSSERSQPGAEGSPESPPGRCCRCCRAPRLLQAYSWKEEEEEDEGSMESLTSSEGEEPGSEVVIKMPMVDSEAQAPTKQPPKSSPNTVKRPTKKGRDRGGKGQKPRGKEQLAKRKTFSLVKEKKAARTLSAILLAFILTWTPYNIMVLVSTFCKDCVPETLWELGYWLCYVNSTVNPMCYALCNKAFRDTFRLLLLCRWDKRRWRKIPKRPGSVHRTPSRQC
# [2] = test system: cognitively intact healthy participants; conditions: in vivo, iv
# Source text: Cambridge Neuropsychological Test Automated Battery (CANTAB-AD):
# Two main challenges are often encountered with many of the newer neurocognitive tasks. First is the lack of standardization in administering such tasks. Second is the lack of information on their psychometric properties. The Cambridge Neuropsychological Test Automated Battery (CANTAB) system addresses both of these challenges (www.cambridgecognition.com). The design of the CANTAB is based on well-established neurocognitive experimental paradigms. It was designed initially to provide componential analysis of cognitive functions in the elderly and individuals with dementia. The CANTAB Eclipse consists of 22 tasks that assess neurocognitive processes within a wide range of relatively independent cognitive domains, including visual memory, attention, working memory and problem solving. Each of the tasks is graded, allowing the assessment of patients with varying level of impairment. Increasing the difficulty of a task avoids a ceiling effect. Conversely, decreasing the difficulty of a task avoids a floor effect and allows the distinction between specific and generalized deficits (a concern discussed above). The tasks are automated and therefore testing is given in a standardized manner with a standardized feedback about accuracy and speed. […] Estimates of test-retest reliability and of practice effects are available for many of the CANTAB tasks based on an elderly sample with an age range of 60-80 years. The CANTAB has been used in a variety of clinical populations providing an opportunity to compare findings related to different disorders, including findings examining cognition in late-life bipolar disorder. Finally, the CANTAB tasks are independent of language and culture and can be used in population for whom English is not a primary language^46.
# Participants attended the Centre for Addiction and Mental Health on two separate occasions:
# Visit 2: Upon arrival at CAMH, participants were administered the CANTAB. An IV line was then set up by a research nurse and the first blood sample was taken. […] The CANTAB was completed once more. […] The qualified investigator or designate was available for the entirety of the study visit.
smiles,measurement,setting,value
"Clc1ccc2c(c1)N=C(N1CCNCC1)c1ccccc1N2 [NDMC, N-desmethylclozapine]",effect on Ca2+ mobilization in the pre-carbachol phase,[1],stronger effects than CLZ
same,effect on the carbachol response (post-carbachol phase),[1],virtually eliminated the carbachol response
"CN1[C@@H]2C[C@@H](OC(=O)[C@H](CO)c3ccccc3)C[C@H]1[C@@H]1O[C@@H]12 [scopolamine, Scopolamine Hydrobromide]","blc_pc difference score (Big/little circle, Percent correct)",[2],−0.8
same,"dms_pc difference score (Delayed matching to sample, Percent correct (all delays))",[2],−19.3
same,"dms_pcs difference score (Delayed matching to sample, Percent correct (simultaneous))",[2],4.4
same,"dms_pege difference score (Delayed matching to sample, Prob error given error)",[2],0.1
same,"pal_tea6 difference score (Paired associated learning, Total errors (6 shapes, adjusted))",[2],9.0
same,"pal_tea difference score (Paired associated learning, Total errors (adjusted))",[2],19.1
same,"rvp_a difference score (Rapid image visual processing, A′)",[2],−0.1
same,"soc_mitt5 difference score (Stocking of Cambridge, Mean initial thinking time (5 moves))",[2],−3055.0
same,"soc_mstt5 difference score (Stocking of Cambridge, Mean subsequent thinking time (5 moves))",[2],5139.3
same,"soc_psimm difference score (Stocking of Cambridge, Problems solved in minimum moves)",[2],−1.7
same,"swm_be difference score (Spatial working memory, Between errors)",[2],20.2
same,"swm_strat difference score (Spatial working memory, Strategy)",[2],3.1
"CN1[C@@H]2CC[C@H]1C[C@@H](OC(=O)C(CO)c1ccccc1)C2 (stereo partly shown) [Atropine, atropine]",effect of the antagonist alone on Ca2+ mobilization,[1],no effect on their own
same,effect on the agonist response (serum peak),[1],completely blocked this agonist response
